The subject of one data set is HCT116 cells xenograft. The data set can be described thus: Anti-tumor activity in vivo, HCT116 xenograft model. More on the design: species or system BALB/c-nude mice. As for the experimental part:
Male BALB/c-nude mice (Jinan Pengyue Experimental Animal Breeding Co., Ltd., Jinan, China), 5 weeks of age, were used. The mice were housed in a specific pathogen-free room with temperature controlled (22 ± 2 °C), humidity (55 ± 10%) and a light/dark cycle of 12 h, providing sterile food and water. The HCT116 cells xenograft model was conducted, and 1 × 10^7 HCT116 cells were subcutaneously injected into the right armpit of mice. The tumor volume of mice was measured every three days to evaluate the tumor growth. When the tumor volume reached about 100 mm^3, the mice were randomly divided into four groups (n = 6), and treated with vehicle (0.5% CMC-Na solution) or 4o (25, 50 mg/kg) by gavage once a day for 13 consecutive days. A total of 25 mg/kg 5-FU was used as a positive control. The body weight of mice was measured every three days. The length (L) and width (W) of tumors were measured by electronic caliper every three days. The volume (V) was calculated as follows: V = (L × W^2)/2. When the tumor volume reached about 1000 mm^3, the tumors were excised. Immunohistochemical analysis were used to evaluate the related protein levels.

Data set [1] concerns HCT116 cells. The data set can be described thus: Cell viability assay (SRB). It counts as cell-based, human. The text has this: Human colon cancer cell line HCT116, hepatoma cell lines HepG2 and BEL-7402, lung adenocarcinoma cell lines NCI-H1975 and 95-D, pancreatic cancer cell line Panc-1, breast cancer cell line MDA-MB-231, NSCLC cell line NCI-H1299, ovarian cancer cell line SK-OV-3, leukemia cell line K562, glioma cell line U87, colon epithelial cell line NCM460 and umbilical vein endothelial cell line HUVEC were purchased from the Institute of Biochemistry and Cell Biology, Chinese Academy of Sciences (Shanghai, China). HCT116 cell line was cultured in McCoy’s 5A medium (Hyclone, Logan, UT, USA). HepG2, 95-D, Panc-1, MDA-MB-231, BEL-7402, SK-OV-3, U87 and NCM460 cell lines were cultured in DMEM-High glucose medium (Hyclone, Logan, UT, USA). NCI-H1975, NCI-H1299 and HUVEC cell lines were cultured in RPMI 1640 medium (Hyclone, Logan, UT, USA). K562 cell line was cultured in IMDM medium (Hyclone, Logan, UT, USA). […]
The inhibition rate of cell viability was detected by 3-(4,5-dimethyl-2-thiazolyl)-2,5-diphenyl-2-H-tetrazolium bromide (MTT, Solarbio, Beijing, China) or Sulforhodamine B (SRB, Sigma-Aldrich, St. Louis, MO, USA) assay. […] The absorbance at 570 nm was measured in a multimode reader (Berthold Technologies, Germany). […] Finally, Tris–HCl solution was added, and the absorbance at 515 nm was detected in a multimode reader (Berthold Technologies, Germany).

Data set [2] relates to HCT116 cells. Put plainly: Colony formation assay. It counts as cell-based, human. To be noted: 4o 0.625, 1.25 and 2.5 μM, 8 days. The protocol: HCT116 cells were seeded in 6-well plates at a density of 500 cells per well. After 24 h, cells were treated with different concentrations of 4o for 8 days. Subsequently, the culture medium was removed and the cells were fixed with methanol for 3 min, and stained with crystal violet (Solarbio, Beijing, China) for 15 min. Finally, colonies were counted and photographed.

A further data set relates to Panc-1 cells. Put plainly: Cell viability assay (SRB). It counts as cell-based. The settings on record: Homo sapiens, Panc-1, 72 h. The text has this: (§1) Human colon cancer cell line HCT116, hepatoma cell lines HepG2 and BEL-7402, lung adenocarcinoma cell lines NCI-H1975 and 95-D, pancreatic cancer cell line Panc-1, breast cancer cell line MDA-MB-231, NSCLC cell line NCI-H1299, ovarian cancer cell line SK-OV-3, leukemia cell line K562, glioma cell line U87, colon epithelial cell line NCM460 and umbilical vein endothelial cell line HUVEC were purchased from the Institute of Biochemistry and Cell Biology, Chinese Academy of Sciences (Shanghai, China). HCT116 cell line was cultured in McCoy’s 5A medium (Hyclone, Logan, UT, USA). HepG2, 95-D, Panc-1, MDA-MB-231, BEL-7402, SK-OV-3, U87 and NCM460 cell lines were cultured in DMEM-High glucose medium (Hyclone, Logan, UT, USA). NCI-H1975, NCI-H1299 and HUVEC cell lines were cultured in RPMI 1640 medium (Hyclone, Logan, UT, USA). K562 cell line was cultured in IMDM medium (Hyclone, Logan, UT, USA). All of them were incubated in the medium with 10% fetal bovine serum (PAN, Adenbach, Bavaria, Germany) and 1% penicillin-streptomycin (Gibco-Invitrogen, Grand Island, NY, USA) under a humidified atmosphere of 5% CO2 at 37 °C.
(§2) The inhibition rate of cell viability was detected by 3-(4,5-dimethyl-2-thiazolyl)-2,5-diphenyl-2-H-tetrazolium bromide (MTT, Solarbio, Beijing, China) or Sulforhodamine B (SRB, Sigma-Aldrich, St. Louis, MO, USA) assay. In MTT assay, the suspension cells were inoculated in 96-well plates at the density of 5000 cells per well, and incubated with 4o at indicated concentrations dissolved in DMSO for 72 h. Each well was incubated with MTT solution (5 mg/mL) at 37 °C for 4 h, DMSO was added and incubated overnight at 37 °C. The absorbance at 570 nm was measured in a multimode reader (Berthold Technologies, Germany). In SRB assay, adherent cells were seeded in 96-well plates (5000 cells per well). After 24 h, the cells were treated with 4o for 72 h, and then fixed with precooling 10% TCA solution at 4 °C for 1 h. After washing and drying, SRB staining was added for 15 min, and then washed and dried by 1% acetic acid. Finally, Tris–HCl solution was added, and the absorbance at 515 nm was detected in a multimode reader (Berthold Technologies, Germany).

In the next data set the test system is SK-OV-3 cells. The data set can be described thus: Cell viability assay (SRB). It counts as cell-based. The settings on record: Homo sapiens, SK-OV-3, 72 h.
Source text: as §1, §2

In another data set the test system is NCI-H1975 cells. Put plainly: Cell viability assay (SRB). It counts as cell-based. The settings on record: Homo sapiens, NCI-H1975, 72 h.
Source text: as §1, §2

A further data set has as its system HepG2 cells. Put plainly: Cell viability assay (SRB). It counts as cell-based. The settings on record: Homo sapiens, HepG2, 72 h.
Source text: as §1, §2

The subject of a further data set is BEL-7402 cells. The data set can be described thus: Cell viability assay (SRB). It counts as cell-based. To be noted: Homo sapiens, BEL-7402, 72 h.
Source text: as §1, §2

The next data set concerns 95-D cells. Put plainly: Cell viability assay (SRB). It counts as cell-based. The settings on record: Homo sapiens, 72 h.
Source text: as §1, §2

The subject of a further data set is MDA-MB-231 cells. Put plainly: Cell viability assay (SRB). To be noted: Homo sapiens, MDA-MB-231, 72 h. It counts as cell-based.
Source text: as §1, §2

Another data set has as its system NCI-H1299 cells. The data set can be described thus: Cell viability assay (SRB). It counts as cell-based. The settings on record: Homo sapiens, NCI-H1299, 72 h.
Source text: as §1, §2

In another data set the test system is U87 cells. Put plainly: Cell viability assay (SRB). It counts as cell-based. To be noted: Homo sapiens, U-87 MG, U87, 72 h.
Source text: as §1, §2

Data set [3] has as its system HCT116 cells. Put plainly: Hoechst 33258 staining. It counts as cell-based, human. To be noted: HCT116, 4o 2.5, 5 and 10 μM, 24 h. The protocol:
HCT116 cells were treated with different concentrations of 4o for 24 h, then were stained with Hoechst 33,258 (Beyotime Institute of Biotechnology, Shanghai, China). The nuclear morphology was observed under fluorescence microscope.

The term IC50 denotes the concentration that gives 50% inhibition. Higher therefore signals weaker potency in that assay. `CCOc1ccc(Oc2ccc(C3=NN(C4=NC(=O)CS4)C(c4cc(O)c(O)c(Br)c4Br)C3)cc2)cc1` (stereo not drawn) [Compound 4o, 2-(5-(2,3-dibromo-4,5-dihydroxyphenyl)-3-(4-(4-ethoxyphenoxy)phenyl)-4,5-dihydro-1H-pyrazol-1-yl)thiazol-4(5H)-one]: the Tumor inhibition rate is on record as 58.8% in the data set with HCT116 cells xenograft (4o 25 mg/kg by gavage once daily, 13 days) and 67.2% in the data set with HCT116 cells xenograft (4o 50 mg/kg by gavage once daily, 13 days). The “Effect on body weight of tumor-bearing mice” value in the data set with HCT116 cells xenograft (4o 25, 50 mg/kg or 5-FU 25 mg/kg, 13 days) is reported as “did not have any obvious effect on the body weight”. For the same molecule, the “Expression of Ki67 and p-Erk in tumors (immunohistochemistry)” value with HCT116 cells xenograft (4o 25, 50 mg/kg, 13 days) was “significantly decreased”. Also, the Tumor weight entry with HCT116 cells xenograft (4o 25, 50 mg/kg, after 13 days, versus vehicle) was “much lighter”. In the data set with HCT116 cells [1] (24, 48 and 72 h), the “Growth inhibition of HCT116 cells” value was “time- and dose-dependent manner”. Also, the IC50 was 2.64 ± 0.17 µM with HCT116 cells [1] (Homo sapiens, HCT-116, HCT116, 72 h); 6.3 ± 0.5 µM in the data set with Panc-1 cells; 8.44 ± 0.45 µM in the data set on SK-OV-3 cells; 5.29 ± 0.6 µM in the data set with NCI-H1975 cells; 3.8 ± 0.22 µM in the data set on HepG2 cells; 7.38 ± 0.31 µM with BEL-7402 cells. Besides, the concentration for half-maximal inhibition (IC50) in the data set on 95-D cells worked out at 5.42 ± 0.44 µM; in the data set with MDA-MB-231 cells, 6.34 ± 0.37 µM; in the data set with NCI-H1299 cells, 7.42 ± 0.43 µM; in the data set with U87 cells it was 10.2 ± 0.39 µM. Further, the “Colony formation of HCT116 cells” value in the data set with HCT116 cells [2] is on record as “significantly inhibited the colony formation”. Also, in the data set with HCT116 cells [3], the “Nuclear morphology (Hoechst 33,258 staining)” value was “chromatin was condensed and apoptosis occurred”.

Source of the values: paper PMC8998978, “Toward a Treatment of Cancer: Design and In Vitro/In Vivo Evaluation of Uncharged Pyrazoline Derivatives as a Series of Novel SHP2 Inhibitors” (International Journal of Molecular Sciences, 2022).
